Assay results from patent US12037334B2, “Inhibitors of VAP-1” (ACUCELA INC., priority 2018, dated 2024).
pIC50: −log10 of the molar value.

Legend:
Format in all cases: biochemical
rhVAP-1 = target: T1, rhVAP-1 (Homo sapiens, UniProt Q16853); experiment: VAP-1 Assay (fluorometric, Amplex Red/HRP, benzylamine substrate); settings: rhVAP-1, benzylamine 50 μM, 30 minutes at 37° C., 10 mM NaHCO3 pH 7.4
T1 construct: purchased R&D Systems
T1 sequence (Q16853 1-763): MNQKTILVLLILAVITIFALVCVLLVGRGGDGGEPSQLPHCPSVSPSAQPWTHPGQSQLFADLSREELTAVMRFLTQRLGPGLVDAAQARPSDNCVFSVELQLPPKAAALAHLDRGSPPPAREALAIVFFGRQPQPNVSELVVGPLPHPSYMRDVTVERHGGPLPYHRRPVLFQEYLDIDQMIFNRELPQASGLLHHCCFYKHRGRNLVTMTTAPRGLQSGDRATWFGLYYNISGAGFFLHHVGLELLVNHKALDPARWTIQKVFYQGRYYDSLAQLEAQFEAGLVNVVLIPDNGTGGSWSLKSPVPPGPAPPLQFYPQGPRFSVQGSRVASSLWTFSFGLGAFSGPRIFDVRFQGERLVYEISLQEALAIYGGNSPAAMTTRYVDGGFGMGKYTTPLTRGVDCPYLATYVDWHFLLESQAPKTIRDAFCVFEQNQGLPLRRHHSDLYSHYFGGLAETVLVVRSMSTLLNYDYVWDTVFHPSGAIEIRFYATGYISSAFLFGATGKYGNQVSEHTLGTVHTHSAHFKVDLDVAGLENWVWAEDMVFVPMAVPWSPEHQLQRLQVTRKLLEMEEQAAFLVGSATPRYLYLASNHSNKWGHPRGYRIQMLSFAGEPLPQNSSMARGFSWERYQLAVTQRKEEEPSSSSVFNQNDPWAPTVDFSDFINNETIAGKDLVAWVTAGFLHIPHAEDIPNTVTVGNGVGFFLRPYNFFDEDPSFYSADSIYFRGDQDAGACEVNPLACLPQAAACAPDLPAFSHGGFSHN
Description: The capability of compounds described herein to inhibit the enzymatic activity of vascular adhesion protein-1 (VAP-1) was determined by fluorometric assay. The assay procedure provided by R&D Systems was modified slightly for use as an inhibitor screening assay. The assay measured the H2O2 generated from the oxidative deamination of benzylamine by rhVAP-1 by converting Amplex® Red to the fluorescent product, resorufin, via horseradish peroxidase (HRP) and H2O2. Reaction buffer was 10 mM NaHCO3, pH 7.4. A standard curve was prepared by serially diluting H2O2 in reaction buffer. A 10 μM solution of resorufin was prepared in reaction buffer and was dispensed to 2 wells. These wells served as positive control for maximum fluorescence. Reaction buffer was added to the individual wells so that the final volume in each well was 100 μL. Amplex Red was diluted to 1 mM in reaction buffer. A 10U stock of HRP was prepared in reaction buffer. A reaction cocktail was prepared by mixing equal parts 1 mM Amplex Red with 10U HRP with 3 parts reaction buffers. The reaction cocktail was added to the appropriate wells, so that that final concentration in the well was 0.05 mM Amplex Red and 0.5U HRP. A 200 μM solution of benzylamine was prepared in reaction buffer. Benzylamine was added to the appropriate wells so that the final concentration was 50 μM. Inhibitors were diluted in DMSO to 20× and distributed to the appropriate wells. UP-1207 served a positive control. rhVAP-1 was purchased from R&D Systems. The concentration used for each lot was determined so that the activity was equal to the first lot. Two wells were left blank as controls. The plate was incubated for 30 minutes at 37° C., protected from light under foil. The plate was read at 530/35 emission and 590/35 excitation. Data processing was performed using Excel and Prism software.
The capability of compounds described herein to inhibit the enzymatic activity of vascular adhesion protein-1 (VAP-1) was determined by fluorometric assay. The assay procedure provided by R&D Systems was modified slightly for use as an inhibitor screening assay. The assay measured the H2O2 generated from the oxidative deamination of benzylamine by rhVAP-1 by converting Amplex® Red to the fluorescent product, resorufin, via horseradish peroxidase (HRP) and H2O2. Amplex Red, HRP, Benzylamine, inhibitors (with DMSO as vehicle, 0.5% v/v) and rhVAP-1 were added to the wells. Assay was conducted in 10 mM NaHCO3, pH 7.4. A standard curve was prepared by serially diluting H2O2 in reaction buffer. The plate was incubated for 30 minutes at 37° C., protected from light under foil. The plate was read at 530/35 emission and 590/35 excitation. Data processing was performed using Prism software.

rhMAO-A = target: T2, rhMAO-A (Homo sapiens, UniProt P21397); experiment: MAO Assay (modified Promega MAO-Glo), MAO-A inhibition; settings: substrate 10 μM, 1 hour at room temperature; for pIC50: class symbols; for IC50: cells printed as bound in μM
T2 construct: purchased Sigma
T2 sequence (P21397 1-527): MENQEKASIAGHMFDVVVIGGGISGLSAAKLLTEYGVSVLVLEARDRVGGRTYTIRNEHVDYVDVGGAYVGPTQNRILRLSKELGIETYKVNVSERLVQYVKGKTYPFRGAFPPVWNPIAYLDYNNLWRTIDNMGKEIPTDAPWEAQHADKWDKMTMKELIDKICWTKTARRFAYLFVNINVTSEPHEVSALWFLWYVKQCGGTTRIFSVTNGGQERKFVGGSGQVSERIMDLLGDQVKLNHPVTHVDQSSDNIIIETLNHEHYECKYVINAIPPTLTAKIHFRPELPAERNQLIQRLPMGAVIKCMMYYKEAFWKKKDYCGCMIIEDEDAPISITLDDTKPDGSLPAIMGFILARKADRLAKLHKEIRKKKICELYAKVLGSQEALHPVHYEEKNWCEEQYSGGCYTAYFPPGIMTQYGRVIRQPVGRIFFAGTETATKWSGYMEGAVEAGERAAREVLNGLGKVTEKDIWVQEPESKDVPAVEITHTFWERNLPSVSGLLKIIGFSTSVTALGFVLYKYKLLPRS
Description: (§1) The capability of compounds described herein to inhibit MAO was determined using a modified Promega MAO-Glo™ assay kit. The substrate ((4S)-4,5-dihydro-2-(6-hydroxybenzothiazolyl)-4-thiazolecarboxylic acid) was converted by MAO to produce methyl ester luciferin. The luciferin was then converted by luciferase to produce oxyluciferin and light. The light was measured using a luminescence setting on the plate reader. A standard curve was prepared by serially diluting luciferin in reaction buffer. The standard kit reaction buffer was used—100 mM HEPES (pH 7.5), 5% glycerol. The substrate was dispensed into the wells so that the final concentration for MAO-A inhibition assay would be 10 μM and MAO-B inhibition assay would be 1 μM. Inhibitors were diluted in DMSO to 4× and distributed to the appropriate wells. Clorgyline and Deprenyl served as positive controls. rhMAO-A and rhMAO-B were purchased from Sigma. MAO-A or MAO-B was added to the appropriate wells. The plate was incubated for 1 hour, at room temperature with gentle shaking (90 rpm). The detection agent was added at equal volume (48 μL detection agent to 48 μL reaction). The plate was incubated for 20 minutes, at room temperature with gentle shaking (90 rpm). The plate luminescence was read. Data processing was performed using Prism software.
(§2) The capability of compounds described herein to inhibit MAO was determined using a modified Promega MAO-Glo™ assay. Test compounds, substrate and enzyme were incubated per manufacturer instructions for lhour, at room temperature with gentle shaking (90 rpm) before addition of detection agent. The detection agent was added at equal volume (48 μL detection agent to 48 μL reaction). The plate was incubated for 20 minutes, at room temperature with gentle shaking (90 rpm). The plate luminescence was read. Data processing was performed using Prism software.

rhMAO-B = target: T3, rhMAO-B (Homo sapiens, UniProt P27338); experiment: MAO Assay (modified Promega MAO-Glo), MAO-B inhibition; settings: substrate 1 μM, 1 hour at room temperature
T3 construct: purchased Sigma
T3 sequence (P27338 1-520): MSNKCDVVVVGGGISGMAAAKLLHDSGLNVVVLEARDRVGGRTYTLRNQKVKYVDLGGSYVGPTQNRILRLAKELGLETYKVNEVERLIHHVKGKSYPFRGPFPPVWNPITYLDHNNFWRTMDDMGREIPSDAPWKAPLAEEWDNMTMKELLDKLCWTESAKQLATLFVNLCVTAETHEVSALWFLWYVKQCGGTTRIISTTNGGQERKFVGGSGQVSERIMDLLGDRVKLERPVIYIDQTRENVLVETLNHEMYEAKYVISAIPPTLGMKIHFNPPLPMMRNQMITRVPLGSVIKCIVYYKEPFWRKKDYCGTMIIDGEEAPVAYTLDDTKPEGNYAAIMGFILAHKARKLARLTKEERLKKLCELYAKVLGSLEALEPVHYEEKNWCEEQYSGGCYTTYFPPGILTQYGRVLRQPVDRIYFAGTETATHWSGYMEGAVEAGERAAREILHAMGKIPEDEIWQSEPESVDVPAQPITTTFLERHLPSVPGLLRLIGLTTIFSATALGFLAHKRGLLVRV
Description: as §1, §2

| SMILES | pIC50 (rhVAP-1) | pIC50 (rhMAO-A) | pIC50 (rhMAO-B) | IC50 (rhMAO-A) |
| --- | --- | --- | --- | --- |
| CCCCc1cn2cc(OC/C(=C/F)CN)ccc2n1 [Example 1, (E)-2-(((2-butylimidazo[1,2-a]pyridin-6-yl)oxy)methyl)-3-fluoroprop-2-en-1-amine bis(4-methylbenzenesulfonate)] | > 7.00 | 4.52 to 5.00 | 5.00 to 6.00 | – |
| CCCCc1cn2ccc(OC/C(=C/F)CN)cc2n1 [Example 2, (E)-2-(((2-butylimidazo[1,2-a]pyridin-7-yl)oxy)methyl)-3-fluoroprop-2-en-1-amine 4-methylbenzenesulfonate] | > 7.00 | 4.52 to 5.00 | 4.52 to 5.00 | – |
| CCCCc1nc2cc(OC/C(=C/F)CN)ccn2n1 [Example 3, (E)-2-(((2-butyl-[1,2,4]triazolo[1,5-a]pyridin-7-yl)oxy)methyl)-3-fluoroprop-2-en-1-amine 4-methylbenzenesulfonate] | > 7.00 | 4.52 to 5.00 | 5.00 to 6.00 | – |
| CCCCc1nc2ccc(OC/C(=C/F)CN)cn2n1 [Example 4, (E)-2-(((2-butyl-[1,2,4]triazolo[1,5-a]pyridin-6-yl)oxy)methyl)-3-fluoroprop-2-en-1-amine 4-methylbenzenesulfonate] | > 7.00 | 4.52 to 5.00 | 6.00 to 7.00 | – |
| CCCCc1cn2cc(OC/C(=C\F)CN)ccc2n1 [Example 5, (Z)-2-(((2-butylimidazo[1,2-a]pyridin-6-yl)oxy)methyl)-3-fluoroprop-2-en-1-amine 4-methylbenzenesulfonate] | > 7.00 | 4.52 to 5.00 | 5.00 to 6.00 | – |
| CCCCc1cc2ccc(OC/C(=C/F)CN)cn2n1 [Example 6] | > 7.00 | 4.52 to 5.00 | 6.00 to 7.00 | – |
| CCCCc1cn2nc(OC/C(=C/F)CN)ccc2n1 [Example 7, (E)-2-(((2-butylimidazo[1,2-b]pyridazin-6-yl)oxy)methyl)-3-fluoroprop-2-en-1-amine 4-methylbenzenesulfonate] | > 7.00 | – | 6.00 to 7.00 | > 50 µM |
| CCCCc1cc2cc(OC/C(=C/F)CN)ccn2n1 [Example 8, (E)-2-(((2-butylpyrazolo[1,5-a]pyridin-5-yl)oxy)methyl)-3-fluoroprop-2-en-1-amine bis(4-methylbenzenesulfonate)] | > 7.00 | 5.00 to 6.00 | 6.00 to 7.00 | – |
| NC/C(=C/F)COc1ccc2nc(C3CCCC3)cn2c1 [Example 9, (Z)-2-(((2-cyclopentylimidazo[1,2-a]pyridin-6-yl)oxy)methyl)-3-fluoroprop-2-en-1-amine 4-methylbenzenesulfonate] | > 7.00 | 5.00 to 6.00 | 5.00 to 6.00 | – |
| CCCCc1cn2cc(OC/C(=C/F)CNC(=O)OC(C)(C)C)cnc2n1 [Example 10, tert-butyl (E)-(2-(((2-butylimidazo[1,2-a]pyrimidin-6-yl)oxy)methyl)-3-fluoroallyl)carbamate] | > 7.00 | – | 5.00 to 6.00 | > 50 µM |
